Experimental data published in US10138207B2, “Benzomorphan analogs and the use thereof” (priority 2012, dated 2018).
Read-outs that look alike come from different tables or passages of the source.

How the values were obtained:
μ-opioid receptor = μ-opioid receptor (Homo sapiens, UniProt P35372); assay: μ-opioid receptor [35S]GTPγS functional assay, U-2 OS cells; format: biochemical; parameters: expressed in transfected cells; host or cells: U-2 OS; details: for Emax / GTPγS μ Emax: relative to DAMGO
μ-opioid receptor, sequence (P35372 whole entry, species assumed): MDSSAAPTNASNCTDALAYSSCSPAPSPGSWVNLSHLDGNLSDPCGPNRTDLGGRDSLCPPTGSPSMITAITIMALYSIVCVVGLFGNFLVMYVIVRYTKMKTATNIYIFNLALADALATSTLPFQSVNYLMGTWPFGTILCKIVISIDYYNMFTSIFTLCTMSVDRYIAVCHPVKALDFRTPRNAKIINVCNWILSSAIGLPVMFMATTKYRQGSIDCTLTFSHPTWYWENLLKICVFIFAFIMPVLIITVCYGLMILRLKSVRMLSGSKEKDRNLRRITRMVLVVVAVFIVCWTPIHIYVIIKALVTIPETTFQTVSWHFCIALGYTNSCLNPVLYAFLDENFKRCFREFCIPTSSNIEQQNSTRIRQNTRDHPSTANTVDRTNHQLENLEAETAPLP

κ opioid receptor = κ opioid receptor (Homo sapiens, UniProt P41145); assay: κ-opioid receptor [35S]GTPγS functional assay, U-2 OS cells; format: biochemical; parameters: expressed in transfected cells; host or cells: U-2 OS (in-house membranes); details: for Emax: read-out: GTPγS κ Emax
κ opioid receptor, sequence (P41145 whole entry): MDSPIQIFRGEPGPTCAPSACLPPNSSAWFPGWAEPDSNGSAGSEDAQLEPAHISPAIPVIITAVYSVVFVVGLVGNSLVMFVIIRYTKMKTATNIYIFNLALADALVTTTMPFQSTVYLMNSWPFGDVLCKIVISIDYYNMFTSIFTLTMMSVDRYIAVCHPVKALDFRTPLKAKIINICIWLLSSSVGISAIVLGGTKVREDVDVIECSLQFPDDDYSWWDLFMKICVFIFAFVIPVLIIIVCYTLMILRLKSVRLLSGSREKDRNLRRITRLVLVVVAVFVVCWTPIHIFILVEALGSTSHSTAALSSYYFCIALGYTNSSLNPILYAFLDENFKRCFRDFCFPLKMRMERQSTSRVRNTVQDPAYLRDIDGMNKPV
Protocol: Membranes from recombinant HEK-293 cells, CHO or U-2 OS cells expressing the recombinant human κ opioid receptor (κ) were prepared by lysing cells in ice cold hypotonic buffer (2.5 mM MgCl2, 50 mM HEPES, pH 7.4) (10 mL/10 cm dish) followed by homogenization with a tissue grinder/Teflon pestle. […] Membranes were collected by centrifugation at 30,000×g for 15 min at 4° C. and pellets were resuspended in hypotonic buffer to a final concentration of 1-3 mg/mL. Protein concentrations were determined using the BioRad protein assay reagent with bovine serum albumen as standard. Aliquots of κ receptor membranes were stored at −80° C.
Plates were incubated for 30 min at a temperature of about 25° C. with shaking.

[1] = U-2 OS cells, read-out: GTPγS μ EC50
[2] = U-2 OS cells, relative to U69,593
[3] = U-2 OS cells, read-out: GTPγS κ EC50
[4] = U-2 OS cells, read-out: GTPγS μ Emax

Compound | EC50 (μ-opioid receptor; GTPγS μ EC50, U-2 OS cells, bound in μM) [µM] | Emax (μ-opioid receptor; read-out: GTPγS μ Emax, U-2 OS cells) [%] | EC50 (κ opioid receptor) [nM] | Emax (κ opioid receptor) [%] | EC50 (μ-opioid receptor; [1]) [µM] | GTPγS μ Emax (μ-opioid receptor; U-2 OS cells) [%] | EC50 (κ opioid receptor; U-2 OS cells, bound in μM, read-out: GTPγS κ EC50) [nM] | Emax (κ opioid receptor; [2]) [%] | EC50 (κ opioid receptor; [3]) [nM] | Emax (μ-opioid receptor; [4]) [%]
CN1CC[C@@]2(C)c3cc(O)ccc3C[C@@H]1[C@H]2NCC1CCN(C(=O)OC(C)(C)C)CC1 [Compound 106, tert-butyl 4-((((2R,6S,11S)-8-hydroxy-3,6-dimethyl-1,2,3,4,5,6-hexahydro-2,6-methanobenzo[d]azocin-11-yl)amino)methyl)piperidine-1-carboxylate] | > 20 | 2.5 | > 20000 | 1 |  |  |  |  |  | 
CN1CC[C@@]2(C)c3cc(O)ccc3C[C@@H]1[C@@H]2NCC1CCN(C(=O)OC(C)(C)C)CC1 [Compound 107, tert-butyl 4-((((2R,6S,11R)-8-hydroxy-3,6-dimethyl-1,2,3,4,5,6-hexahydro-2,6-methanobenzo[d]azocin-11-yl)amino)methyl)piperidine-1-carboxylate] |  |  |  |  | 0.0462 ± 0.00035 | 58.30 ± 0.33 | > 20000 | 1 |  | 
CN1CC[C@@]2(C)c3cc(O)ccc3C[C@@H]1[C@@H]2N(C)CC1CCN(C(=O)OC(C)(C)C)CC1 [Compound 108, tert-butyl 4-((((2R,6S,11R)-8-hydroxy-3,6-dimethyl-1,2,3,4,5,6-hexahydro-2,6-methanobenzo[d]azocin-11-yl)(methyl)amino)methyl)piperidine-1-carboxylate] |  |  |  |  | 0.00039 ± 0.00011 | 80.80 ± 2.50 |  | 18.8 ± 1.25 | 3.27 ± 0.69 | 
CN1CC[C@@]2(C)c3cc(O)ccc3C[C@@H]1[C@H]2N(C)CCc1ccc(S(N)(=O)=O)cc1 [Compound 109, 4-(2-(((2R,6S,11S)-8-hydroxy-3,6-dimethyl-1,2,3,4,5,6-hexahydro-2,6-methanobenzo[d]azocin-11-yl)(methyl)amino)ethyl)benzenesulfonamide] |  |  |  |  | 0.029 ± 0.00136 |  |  | 36.7 ± 0.67 | 192 ± 41.6 | 100 ± 3.18
CN1CC[C@@]2(C)c3cc(O)ccc3C[C@@H]1[C@H]2NCCc1c[nH]c2ccccc12 [Compound 110, (2R,6S,11S)-11-((2-(1H-indol-3-yl)ethyl)amino)-3,6-dimethyl-1,2,3,4,5,6-hexahydro-2,6-methanobenzo[d]azocin-8-ol] |  |  |  |  | 0.0116 ± 0.00155 |  |  | 37.7 ± 2.03 | 25.4 ± 3.38 | 92.3 ± 2.03
CN1CC[C@@]2(C)c3cc(O)ccc3C[C@@H]1[C@H]2NCCCNC(=O)OC(C)(C)C [Compound 111, tert-butyl (3-(((2R,6S,11S)-8-hydroxy-3,6-dimethyl-1,2,3,4,5,6-hexahydro-2,6-methanobenzo[d]azocin-11-yl)amino)propyl)carbamate] |  |  |  |  | 0.00223 ± 0.00012 |  |  | 22.7 ± 2.33 | 42.6 ± 7.64 | 64 ± 4
CN1CC[C@@]2(C)c3cc(O)ccc3C[C@@H]1[C@H]2NCCNC(=O)OC(C)(C)C [Compound 112, tert-butyl (2-(((2R,6S,11S)-8-hydroxy-3,6-dimethyl-1,2,3,4,5,6-hexahydro-2,6-methanobenzo[d]azocin-11-yl)amino)ethyl)carbamate] |  |  |  |  | 0.00756 ± 0.00045 |  |  | 26.3 ± 0.88 | 23.4 ± 7.81 | 83.7 ± 1.45
C[C@]12CCN(CC3CC3)[C@H](Cc3ccc(O)cc31)[C@H]2NC(=O)c1ccsc1 [Compound 113, N-((2R,6S,11S)-3-(cyclopropylmethyl)-8-hydroxy-6-methyl-1,2,3,4,5,6-hexahydro-2,6-methanobenzo[d]azocin-11-yl)thiophene-3-carboxamide] |  |  |  |  | 0.00045 ± 3.6e-05 |  |  | 99.2 ± 1.65 | 0.052 ± 0.013 | 68.7 ± 3.71
CN(C(=O)c1ccsc1)[C@@H]1[C@H]2Cc3ccc(O)cc3[C@]1(C)CCN2CC1CC1 [Compound 114, N-((2R,6S,11S)-3-(cyclopropylmethyl)-8-hydroxy-6-methyl-1,2,3,4,5,6-hexahydro-2,6-methanobenzo[d]azocin-11-yl)-N-methylthiophene-3-carboxamide] |  |  |  |  | 0.152 ± 0.0168 |  |  | 107 ± 4.36 | 18.9 ± 2.01 | 20.7 ± 0.67
CN(C(=O)c1ccccc1)[C@@H]1[C@H]2Cc3ccc(O)cc3[C@]1(C)CCN2CC1CC1 [Compound 115, N-((2R,6S,11S)-3-(cyclopropylmethyl)-8-hydroxy-6-methyl-1,2,3,4,5,6-hexahydro-2,6-methanobenzo[d]azocin-11-yl)-N-methylbenzamide] |  |  |  |  | 0.159 ± 0.0154 |  |  | 76 ± 6.66 | 53.4 ± 7.28 | 37.7 ± 1.67
CC(C)CCC(=O)N(C)[C@H]1[C@H]2Cc3ccc(O)cc3[C@]1(C)CCN2C [Compound 116, N-((2R,6S,11R)-8-hydroxy-3,6-dimethyl-1,2,3,4,5,6-hexahydro-2,6-methanobenzo[d]azocin-11-yl)-N,4-dimethylpentanamide] |  |  |  |  | 0.00312 ± 0.00015 |  |  | 56.3 ± 3.93 | 69.4 ± 5.37 | 104 ± 2.96
CN1CC[C@@]2(C)c3cc(O)ccc3C[C@@H]1[C@H]2N(C)C(=O)Cc1ccccc1 [Compound 117, N-((2R,6S,11S)-8-hydroxy-3,6-dimethyl-1,2,3,4,5,6-hexahydro-2,6-methanobenzo[d]azocin-11-yl)-N-methyl-2-phenylacetamide] |  |  |  |  | 0.822 ± 0.0939 |  |  | 79.7 ± 5.46 | 3390 ± 439 | 93.7 ± 5.36
